Measured values: patent US11072598B2, “Somatostatin modulators and uses thereof” (CRINETICS PHARMACEUTICALS, INC., priority 2017, dated 2021)

Biological target: T1, human somatostatin receptor subtype 2 (Homo sapiens, UniProt P30874)
T1 construct: expressed in transfected cells
Assay: cAMP functional assay for SSTR2 agonists
Type: cell-based
Settings: inhibition of cAMP activities via human SST2 receptor (SSTR2), CHO-K1 cells; read-out: EC50
Text: General overview: All five SSTR subtypes are Gi coupled G-protein coupled receptors (GPCRs) that lead to decreases in intracellular cyclic AMP (cAMP) when activated by an agonist. Therefore, measurement of intracellular cAMP levels can be used to assess whether compounds of the invention are agonists of SSTR subtypes (John Kelly, Troy Stevens, W. Joseph Thompson, and Roland Seifert, Current Protocols in Pharmacology, 2005, 2.2.1-2.2). One example of an intracellular cAMP assay is described below. cAMP assay protocol:
Four days prior to the assay, 5,000 Chinese hamster ovary cells (CHO-K1, ATCC #CCL-61) stably expressing the human somatostatin receptor subtype 2 are plated in each well of a 96-well tissue culture-treated plate in Ham's F12 growth media (ThermoFisher #10-080-CM) supplemented with 10% donor bovine serum (Gemini Bio-Products #100-506), 100 U/mL penicillin; 100 ug/mL streptomycin; 2 mM L-glutamine (Gemini Bio-Products #400-110) and 0.2 mg/mL hygromycin B (GoldBio #31282-04-9). The cells are cultured at 37° C., 5% CO2 and 95% humidity. On the day of the assay, the media is aspirated and the cells are treated with 50 μL of 1.6 μM NKH477 (Sigma #N3290) plus various dilutions of compounds of the invention in assay buffer [1× Hank's Balanced Salt Solution (ThermoFisher #SH3058802), 0.5 mM HEPES pH 7.4, 0.1% bovine serum albumin, 0.2 mM 3-Isobutyl-1-methylxanthine (IBMX, VWR #200002-790)]. The cells are incubated for 20 minutes at 37° C. […] The cells are treated with 50 μL of lysis buffer (HRTF cAMP kit, Cisbio). The lysate is transferred to 384-well plates and cAMP detection and visualization antibodies are added and incubated for 1-24 hours at room temperature. The time-resolved fluorescent signal is read with a Tecan M1000Pro multiplate reader. The intracellular cAMP concentrations are calculated by regression to a standard curve and are plotted vs. the concentration of the compounds of the invention and the EC50 of the compounds are calculated using standard methods. All data manipluations are in GraphPad Prism v6.

T1 sequence (P30874 whole entry): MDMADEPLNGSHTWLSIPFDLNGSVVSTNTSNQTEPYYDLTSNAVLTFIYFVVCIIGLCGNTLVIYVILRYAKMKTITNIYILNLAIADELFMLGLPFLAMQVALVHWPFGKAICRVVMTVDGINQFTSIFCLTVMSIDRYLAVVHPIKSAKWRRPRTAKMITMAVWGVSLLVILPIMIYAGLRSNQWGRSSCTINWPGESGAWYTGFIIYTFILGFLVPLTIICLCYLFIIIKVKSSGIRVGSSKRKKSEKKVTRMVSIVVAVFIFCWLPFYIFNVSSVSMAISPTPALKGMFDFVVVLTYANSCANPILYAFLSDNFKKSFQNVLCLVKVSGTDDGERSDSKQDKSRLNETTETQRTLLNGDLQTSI

Row | Molecule | EC50
1 | 4-(4-aminopiperidin-1-yl)-5-(3-fluoro-5-methylphenyl)-3-(7-methoxy-1H-1,3-benzodiazol-2-yl)pyridin-2-amine [Compound 1-13] | < 10 nM
2 | 4-(4-aminopiperidin-1-yl)-5-(3-fluoro-5-methylphenyl)-3-{5-[(hydroxyimino)methyl]-1H-1,3-benzodiazol-2-yl}pyridin-2-amine [Compound 1-47] | < 10 nM
3 | Cc1cc(C)cc(-c2cnc(N)c(-c3nc4cc(Cl)ccc4[nH]3)c2N2CC[C@@H](N)[C@H](C#N)C2)c1 (relative stereo) [Compound 1-41, trans-4-amino-1-[2-amino-3-(5-chloro-1H-1,3-benzodiazol-2-yl)-5-(3,5-dimethylphenyl)pyridin-4-yl]piperidine-3-carbonitrile] | < 10 nM
4 | Cc1cc(F)cc(-c2cnc(N)c(-c3nc4cc(Cl)ccc4[nH]3)c2N2CC[C@@H](N)[C@H](C#N)C2)c1 (relative stereo) [Compound 1-42, trans-4-amino-1-[2-amino-3-(5-chloro-1H-1,3-benzodiazol-2-yl)-5-(3-fluoro-5-methylphenyl)pyridin-4-yl]piperidine-3-carbonitrile] | < 10 nM
5 | CO[C@@H]1CN(c2c(-c3cc(C)cc(F)c3)cnnc2-c2cc3ccc(Cl)cc3[nH]2)CC[C@H]1N (relative stereo) [Compound 3-11, trans-1-[3-(6-chloro-1H-indol-2-yl)-5-(3-fluoro-5-methylphenyl)pyridazin-4-yl]-3-methoxypiperidin-4-amine] | < 10 nM
6 | Cc1cc(F)cc(-c2cnc(N)c(-c3nc4cc(S(N)(=O)=O)ccc4[nH]3)c2N2CCC(N)CC2)c1 [Compound 1-9, 2-[2-amino-4-(4-aminopiperidin-1-yl)-5-(3-fluoro-5-methylphenyl)pyridin-3-yl]-1H-1,3-benzodiazole-5-sulfonamide] | < 10 nM
7 | Cc1cc(F)cc(-c2cnc(N)c(-c3nc4cc(OC5COC5)ccc4[nH]3)c2N2CCC(N)CC2)c1 [Compound 1-16, 4-(4-aminopiperidin-1-yl)-5-(3-fluoro-5-methylphenyl)-3-[5-(oxetan-3-yloxy)-1H-1,3-benzodiazol-2-yl]pyridin-2-amine] | < 10 nM
8 | CON(C)C(=O)c1cccc2nc(-c3c(N)ncc(-c4cc(C)cc(F)c4)c3N3CCC(N)CC3)[nH]c12 [Compound 1-18, 2-[2-amino-4-(4-aminopiperidin-1-yl)-5-(3-fluoro-5-methylphenyl)pyridin-3-yl]-N-methoxy-N-methyl-1H-1,3-benzodiazole-7-carboxamide] | 10 to 100 nM
9 | Cc1cc(F)cc(-c2cnc(N)c(-c3nc4cc(OC5CCC5)ccc4[nH]3)c2N2CCC(N)CC2)c1 [Compound 1-19, 4-(4-aminopiperidin-1-yl)-3-(5-cyclobutoxy-1H-1,3-benzodiazol-2-yl)-5-(3-fluoro-5-methylphenyl)pyridin-2-amine] | < 10 nM
10 | Cc1cc(F)cc(-c2cnc(N)c(-c3nc4cccc(C=NO)c4[nH]3)c2N2CCC(N)CC2)c1 [Compound 1-22, 4-(4-aminopiperidin-1-yl)-5-(3-fluoro-5-methylphenyl)-3-{7-[(hydroxyimino)methyl]-1H-1,3-benzodiazol-2-yl]pyridin-2-amine] | < 10 nM
11 | CONC(=O)c1ccc2[nH]c(-c3c(N)ncc(-c4cc(C)cc(F)c4)c3N3CCC(N)CC3)nc2c1 [Compound 1-23, 2-[2-amino-4-(4-aminopiperidin-1-yl)-5-(3-fluoro-5-methylphenyl)pyridin-3-yl]-N-methoxy-1H-1,3-benzodiazole-5-carboxamide] | 10 to 100 nM
12 | Cc1cc(F)cc(-c2cnc(N)c(-c3nc4cc(N5CC(F)C5)ccc4[nH]3)c2N2CCC(N)CC2)c1 [Compound 1-26, 4-(4-aminopiperidin-1-yl)-5-(3-fluoro-5-methylphenyl)-3-[5-(3-fluoroazetidin-1-yl)-1H-1,3-benzodiazol-2-yl]pyridin-2-amine] | < 10 nM
13 | Cc1cc(F)cc(-c2cnc(N)c(-c3nc4cc5c(cc4[nH]3)OC(F)(F)O5)c2N2CCC(N)CC2)c1 [Compound 1-31, 4-(4-aminopiperidin-1-yl)-3-{5,5-difluoro-4,6-dioxa-10,12-diazatricyclo[7.3.0.0^3,7]dodeca-1,3 (7),8,10-tetraen-11-yl}-5-(3-fluoro-5-methylphenyl)pyridin-2-amine] | < 10 nM
14 | N#Cc1cc(F)cc(-c2cnc(N)c(-c3nc4cc(Cl)ccc4[nH]3)c2N2CCC(N)CC2)c1 [Compound 1-32, 3-[6-amino-4-(4-aminopiperidin-1-yl)-5-(5-chloro-1H-1,3-benzodiazol-2-yl)pyridin-3-yl]-5-fluorobenzonitrile] | < 10 nM
15 | Cc1cc(F)cc(-c2cnc(N)c(C=NOC(C)C)c2N2CCC(N)CC2)c1 [Compound 1-34] | < 10 nM
16 | Cc1cc(F)cc(-c2cnc(N)c(C=NOC(C)(C)C)c2N2CCC(N)CC2)c1 [Compound 1-35] | < 10 nM
17 | Cc1cc(C)cc(-c2cnc(N)c(C=NOC(C)(C)C)c2N2CCC(N)CC2)c1 [Compound 1-36] | 10 to 100 nM

Results, then the molecule that gave them:

Row | EC50 | Molecule
18 | < 10 nM | CO[C@@H]1CN(c2c(-c3cc(C)cc(F)c3)cnc(N)c2-c2nc3cc(Cl)ccc3[nH]2)CC[C@H]1N (relative stereo) [Compound 1-7, 4-[trans-4-amino-3-methoxypiperidin-1-yl]-3-(5-chloro-1H-1,3-benzodiazol-2-yl)-5-(3-fluoro-5-methylphenyl)pyridin-2-amine]
19 | < 10 nM | C=Cn1c(-c2c(N)ncc(-c3cc(C)cc(F)c3)c2N2CCC(N)CC2)nc2cc(F)c(F)cc21 [Compound 1-4, 4-(4-aminopiperidin-1-yl)-3-(1-ethenyl-5,6-difluoro-1H-1,3-benzodiazol-2-yl)-5-(3-fluoro-5-methylphenyl)pyridin-2-amine]
20 | < 10 nM | Cc1cc(F)cc(-c2cnc(N)c(-c3nc4ccc(F)c(F)c4[nH]3)c2N2CCC(N)CC2)c1 [Compound 1-15, 4-(4-aminopiperidin-1-yl)-3-(6,7-difluoro-1H-1,3-benzodiazol-2-yl)-5-(3-fluoro-5-methylphenyl)pyridin-2-amineine]
21 | 10 to 100 nM | CONC(=O)c1cccc2nc(-c3c(N)ncc(-c4cc(C)cc(F)c4)c3N3CCC(N)CC3)[nH]c12 [Compound 1-17, 2-[2-amino-4-(4-aminopiperidin-1-yl)-5-(3-fluoro-5-methylphenyl)pyridin-3-yl]-N-methoxy-1H-1,3-benzodiazole-7-carboxamide]
22 | < 10 nM | Cc1cc(F)cc(-c2cnc(N)c(-c3nc4cc(OC5CC5)ccc4[nH]3)c2N2CCC(N)CC2)c1 [Compound 1-20, 4-(4-aminopiperidin-1-yl)-3-(5-cyclopropoxy-1H-1,3-benzodiazol-2-yl)-5-(3-fluoro-5-methylphenyl)pyridin-2-amine]
23 | < 10 nM | Cc1cc(F)cc(-c2cnc(N)c(-c3nc4cccc(C#N)c4[nH]3)c2N2CCC(N)CC2)c1 [Compound 1-21, 2-[2-amino-4-(4-aminopiperidin-1-yl)-5-(3-fluoro-5-methylphenyl)pyridin-3-yl]-1H-1,3-benzodiazole-7-carbonitrile]
24 | < 10 nM | CON(C)C(=O)c1ccc2[nH]c(-c3c(N)ncc(-c4cc(C)cc(F)c4)c3N3CCC(N)CC3)nc2c1 [Compound 1-24, 2-[2-amino-4-(4-aminopiperidin-1-yl)-5-(3-fluoro-5-methylphenyl)pyridin-3-yl]-N-methoxy-N-methyl-1H-1,3-benzodiazole-5-carboxamide]
25 | < 10 nM | Cc1cc(C#N)cc(-c2cnc(N)c(-c3nc4cc(Cl)ccc4[nH]3)c2N2CCC(N)CC2)c1 [Compound 1-25, 3-[6-amino-4-(4-aminopiperidin-1-yl)-5-(5-chloro-1H-1,3-benzodiazol-2-yl)pyridin-3-yl]-5-methylbenzonitrile]
26 | < 10 nM | COC(=O)Nc1cccc2nc(-c3c(N)ncc(-c4cc(C)cc(F)c4)c3N3CCC(N)CC3)[nH]c12 [Compound 1-27, methyl N-{2-[2-amino-4-(4-aminopiperidin-1-yl)-5-(3-fluoro-5-methylphenyl)pyridin-3-yl]-1H-1,3-benzodiazol-7-yl}carbamate]
27 | < 10 nM | Cc1cc(F)cc(-c2cnc(N)c(-c3nc4ccc(Cl)cc4n3C)c2N2CCC(N)CC2)c1 [Compound 1-29, 4-(4-aminopiperidin-1-yl)-3-(6-chloro-1-methyl-1H-1,3-benzodiazol-2-yl)-5-(3-fluoro-5-methylphenyl)pyridin-2-amine]
28 | < 10 nM | Cc1cc(F)cc(-c2cnc(N)c(-c3cc4ccc(C#N)cc4[nH]3)c2N2CCC(N)CC2)c1 [Compound 1-33, 2-[2-amino-4-(4-aminopiperidin-1-yl)-5-(3-fluoro-5-methylphenyl)pyridin-3-yl]-1H-indole-6-carbonitrile]
29 | < 10 nM | Cc1cc(Cl)cc(-c2cnc(N)c(C=NOC(C)C)c2N2CCC(N)CC2)c1 [Compound 1-37]
30 | < 10 nM | Cc1cc(Cl)cc(-c2cnc(N)c(C=NOC(C)(C)C)c2N2CCC(N)CC2)c1 [Compound 1-38]
